Results from US20260327224A1, “SUBSTITUTED PYRIDOTRIAZOLE COMPOUND, AND PREPARATION METHOD THEREFOR AND USE THEREOF” (ORIGIANT PHARMACEUTICAL CO., LTD., priority 2023, published 2026).
pEC50, pIC50: −log10 of the molar value.

The compounds below were run against T1, RIPK1 kinase (Homo sapiens, UniProt Q13546) (assay: In vitro RIPK1 kinase assay (Eurofins Kinase Profiler)). Conditions: Inhibitory Activity Against RIPK1 Kinase.
T1 construct: Eurofins
T1 sequence (Q13546 1-671): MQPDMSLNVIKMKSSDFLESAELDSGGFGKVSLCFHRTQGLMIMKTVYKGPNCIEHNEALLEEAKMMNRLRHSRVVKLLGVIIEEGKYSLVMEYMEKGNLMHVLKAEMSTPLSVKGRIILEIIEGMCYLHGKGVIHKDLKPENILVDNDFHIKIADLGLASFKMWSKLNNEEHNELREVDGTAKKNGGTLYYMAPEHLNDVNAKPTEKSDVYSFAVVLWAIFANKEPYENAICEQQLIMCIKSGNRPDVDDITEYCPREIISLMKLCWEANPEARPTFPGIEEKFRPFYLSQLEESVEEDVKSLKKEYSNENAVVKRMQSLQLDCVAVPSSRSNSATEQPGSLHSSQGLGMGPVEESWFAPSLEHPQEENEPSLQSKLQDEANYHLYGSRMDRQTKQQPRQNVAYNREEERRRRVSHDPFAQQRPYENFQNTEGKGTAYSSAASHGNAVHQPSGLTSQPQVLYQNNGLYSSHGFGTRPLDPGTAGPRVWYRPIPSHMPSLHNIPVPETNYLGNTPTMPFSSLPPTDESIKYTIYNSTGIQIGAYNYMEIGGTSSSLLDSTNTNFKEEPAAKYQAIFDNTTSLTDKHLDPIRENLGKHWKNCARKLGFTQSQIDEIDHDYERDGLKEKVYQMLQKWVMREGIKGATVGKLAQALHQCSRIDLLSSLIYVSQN
Assay type: biochemical
Description: In Vitro RIPK1 Kinase Assay:
This assay was completed using the Kinase Profiler service provided by Eurofins. The experimental method was as follows: The small molecule compound to be tested (0.001-10 M) and the protein kinase to be tested were incubated with a buffer containing a substrate, 10 mM magnesium acetate, and [γ-^33P-ATP]. The reaction was initiated by adding a Mg\ATPmix. After incubation at room temperature for a period of time, a 3% phosphate solution was added to the buffer to terminate the reaction. Subsequently, 10 μL of the reaction mixture was quantitatively pipetted and dropped onto P30 filter paper. The paper was washed three times with 75 mM phosphate solution and once with methanol. After drying, scintillation fluid was added for scinticounting. The inhibitory activity of the compound was expressed as the half-maximal inhibitory concentration (IC50). The IC50 values were derived by fitting the inhibition rates corresponding to the respective concentration gradients.

Row | pIC50 | SMILES
1 | 7.00 to 8.00 | C[C@H](NC(=O)c1cn(C)c2ccc(-c3ccn4nc(NC(=O)CN5CCOCC5(C)C)nc4c3)cc12)c1ccc(F)cc1 [Compound 32]

The compounds below were run on HT-29 cells (colon cancer cells) (assay: In vitro assay for protection of HT-29 cells from necroptosis (TNFα/Smac mimetic/Z-VAD-FMK, CCK-8)). Conditions: Homo sapiens, Protective Activity Against Necroptosis, TNFα/Smac mimetic/Z-VAD-FMK induced, 24 h.
Assay type: cell-based
In short: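 Cells seeded overnight received compound in triplicate, then were induced with TNFα/Smac mimetic/Z-VAD-FMK for 24 h. Viability was read by CCK-8 absorbance at 495 nm after 1-3 h; protection rate normalized to solvent and medium-only controls, EC50 from fitted curve.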

Row | SMILES | pEC50
2 | C[C@H](NC(=O)c1cn(C)c2ccc(-c3ccn4nc(NC(=O)CN5CCOCC5(C)C)nc4c3)cc12)c1ccc(F)cc1 [Compound 32] | > 9.00
3 | Cn1cc(C2=NC(c3ccc(F)cc3)CO2)c2cc(-c3ccn4nc(NC(=O)C5CC5)nc4c3)ccc21 (centres unmarked) [Compound 212] | 7.00 to 8.00
4 | C[C@@H](c1ccc(F)cc1)N(C)C(=O)c1cn(C)c2ccc(-c3ccn4nc(NC(=O)[C@@H]5CCCO5)nc4c3)cc12 [Compound 176] | > 9.00
5 | COCC(=O)Nc1nc2cc(-c3ccc4c(c3)c(C(=O)N[C@H](c3ccc(F)cc3)C(F)F)cn4C)ccn2n1 [Compound 166] | > 9.00
6 | CC(c1ccc(F)cc1)n1cnnc1-c1cn(C)c2ccc(-c3ccn4nc(NC(=O)C5CCOC5)nc4c3)cc12 (centres unmarked) [Compound 217] | 7.00 to 8.00
7 | CCOC(=O)Nc1nc2cc(-c3ccc4c(c3)c(C(=O)N[C@@H](C)c3ccc(F)cc3)cn4C)ccn2n1 [Compound 17] | > 9.00
8 | C[C@H](NC(=O)c1cn(C)c2ccc(-c3ccn4nc(NC(=O)C(N)=O)nc4c3)cc12)c1ccc(F)cc1 [Compound 11] | 8.00 to 9.00
9 | Cn1cc(C(=O)N[C@@H](CF)c2ccc(F)cc2)c2cc(-c3ccn4nc(NC(=O)C5CC5(F)F)nc4c3)ccc21 (some centres unmarked) [Compound 110] | > 9.00
10 | COCCn1cc(C(=O)N[C@@H](CF)c2ccc(F)cc2)c2cc(-c3ccn4nc(NC(=O)N5CCOCC5)nc4c3)ccc21 [Compound 214] | 7.00 to 8.00
11 | C[C@H](NC(=O)c1cn(C)c2ccc(-c3ccn4nc(NC(=O)C5(C(=O)O)CC5)nc4c3)cc12)c1ccc(F)cc1 [Compound 31] | 7.00 to 8.00
12 | Cn1cc(C(=O)N2N=CCC2c2ccc(F)cc2)c2cc(-c3ccn4nc(NC(=O)N5CCOCC5)nc4c3)ccc21 (centres unmarked) [Compound 172] | 8.00 to 9.00
13 | C[C@H](NC(=O)c1cn(C)c2ccc(-c3ccn4nc(NC(=O)c5ccnc(F)c5)nc4c3)cc12)c1ccc(F)cc1 [Compound 115] | > 9.00
14 | COCCn1cc(C(=O)N[C@@H](CF)c2ccc(F)cc2)c2cc(-c3ccn4nc(NC(=O)CC#N)nc4c3)ccc21 [Compound 215] | 7.00 to 8.00
15 | C[C@H](NC(=O)c1cn(C)c2ccc(-c3ccn4nc(NC(=O)[C@H]5CCCO5)nc4c3)cc12)c1ccc(F)cc1 [Compound 117] | > 9.00
16 | CN1CCN(C(=O)Nc2nc3cc(-c4ccc5c(c4)c(C(=O)N[C@@H](CF)c4ccc(F)cc4)cn5C)ccn3n2)CC1 [Compound 95] | > 9.00
17 | Cn1cc(C(=O)Nc2nc3cc(-c4ccc5c(c4)c(C(=O)N[C@H]4CCc6ccc(F)cc64)cn5C)ccn3n2)cn1 [Compound 122] | 6.00 to 7.00
18 | Cn1cc(C(=O)N2CC(F)(F)CC2c2ccc(F)cc2)c2cc(-c3ccn4nc(NC(=O)C5CCOC5)nc4c3)ccc21 (centres unmarked) [Compound 159] | > 9.00
19 | Cn1cc(C(=O)N[C@H]2CCc3cc(C#N)ccc32)c2cc(-c3ccn4nc(NC(=O)C5CC5)nc4c3)ccc21 [Compound 130] | 8.00 to 9.00
20 | Cn1cc(C(=O)Nc2nc3cc(-c4ccc5c(c4)c(C(=O)N[C@H]4CCCc6cc(F)ccc64)cn5C)ccn3n2)cn1 [Compound 141] | 8.00 to 9.00
21 | CC(C(=O)Nc1nn(C)c2ccc(-c3ccn4nc(NC(=O)C5CC5)nc4c3)cc12)c1ccc(F)cc1 (centres unmarked) [Compound 182] | 7.00 to 8.00
22 | Cn1cc(C(=O)N[C@H](c2ccc(F)cc2)C(F)F)c2cc(-c3ccn4nc(NC(=O)CC#N)nc4c3)ccc21 [Compound 164] | > 9.00
23 | Cn1cc(C(=O)N2CCC[C@H]2c2ccc(F)cc2)c2cc(-c3ccn4nc(NC(=O)C5CCCO5)nc4c3)ccc21 (some centres unmarked) [Compound 154] | > 9.00
24 | C[C@H](NC(=O)c1cn(C)c2ccc(-c3ccn4nc(NC(=O)CNCC5CC5)nc4c3)cc12)c1ccc(F)cc1 [Compound 66] | > 9.00

Row | SMILES | pEC50
25 | C[C@H](NC(=O)c1cn(C)c2ccc(-c3ccn4nc(NC(=O)CN5CCOCC5)nc4c3)cc12)c1ccc(F)cc1 [Compound 75] | > 9.00
26 | CCNCC(=O)Nc1nc2cc(-c3ccc4c(c3)c(C(=O)N[C@@H](C)c3ccc(F)cc3)cn4C)ccn2n1 [Compound 76] | > 9.00
27 | C[C@H](NC(=O)c1cn(C)c2ccc(-c3ccn4nc(NC(=O)CN5CCC(O)(O)CC5)nc4c3)cc12)c1ccc(F)cc1 [Compound 5] | > 9.00
28 | C[C@H](NC(=O)c1cn(C)c2ccc(-c3ccn4nc(NC(=O)CN5CC6CCC(C5)O6)nc4c3)cc12)c1ccc(F)cc1 [Compound 71] | > 9.00
29 | Cn1cc(C(=O)N[C@@H](CF)c2ccc(F)cc2)c2cc(-c3ccn4nc(NC(=O)C5(C)CCC5)nc4c3)ccc21 [Compound 105] | 7.00 to 8.00
30 | C[C@H](NC(=O)c1cn(C)c2ccc(-c3ccn4nc(NC(=O)C5CC5)nc4c3)cc12)C(C)(C)C [Compound 93] | 6.00 to 7.00
31 | C[C@H](NC(=O)c1nn(C)c2ccc(-c3ccn4nc(NC(=O)N5CCOCC5)nc4c3)cc12)c1ccc(F)cc1 [Compound 195] | > 9.00
32 | C[C@H](NC(=O)c1cn(C)c2ccc(-c3ccn4nc(NC(=O)CN5CCC[C@H]5C(=O)O)nc4c3)cc12)c1ccc(F)cc1 [Compound 37] | 8.00 to 9.00
33 | C[C@H](NC(=O)c1cn(C)c2ccc(-c3ccn4nc(NC(=O)CN5CCN(CCO)CC5)nc4c3)cc12)c1ccc(F)cc1 [Compound 70] | > 9.00
34 | C[C@H](NC(=O)c1cn(C)c2ccc(-c3ccn4nc(NC(=O)CN5CCOC(C)(C)C5)nc4c3)cc12)c1ccc(F)cc1 [Compound 18] | > 9.00
35 | COCCNCC(=O)Nc1nc2cc(-c3ccc4c(c3)c(C(=O)N[C@@H](C)c3ccc(F)cc3)cn4C)ccn2n1 [Compound 68] | > 9.00
36 | CC(c1ccc(F)cc1)n1cnc(-c2cn(C)c3ccc(-c4ccn5nc(NC(=O)c6cnn(C)c6)nc5c4)cc23)n1 (centres unmarked) [Compound 208] | 6.00 to 7.00
37 | C[C@H](NC(=O)c1cn(C)c2ccc(-c3ccn4nc(NC(=O)CN5CCOC[C@H]5C)nc4c3)cc12)c1ccc(Cl)cc1 [Compound 81] | > 9.00
38 | Cn1cc(C(=O)N[C@@H](CF)c2ccc(F)cc2)c2cc(-c3ccn4nc(NC(=O)CN5CCCCC5)nc4c3)ccc21 [Compound 96] | > 9.00
39 | Cn1cc(C(=O)N[C@H]2CCCc3cc(F)ccc32)c2cc(-c3ccn4nc(NC(=O)[C@H]5CCCO5)nc4c3)ccc21 [Compound 137] | 7.00 to 8.00
40 | CC(c1ccc(F)cc1)n1cnc(-c2cn(C)c3ccc(-c4ccn5nc(NC(=O)C6CC6F)nc5c4)cc23)n1 (centres unmarked) [Compound 209] | 6.00 to 7.00
41 | C[C@H](NC(=O)c1cn(C)c2ccc(-c3ccn4nc(NC(=O)[C@@H]5CCC(=O)N5)nc4c3)cc12)c1ccc(F)cc1 [Compound 14] | > 9.00
42 | C[C@H](NC(=O)c1cn(C)c2ccc(-c3ccn4nc(NC(=O)CN(C)C)nc4c3)cc12)c1ccc(Cl)cc1 [Compound 78] | > 9.00
43 | C[C@@H](c1ccc(F)cc1)N(C)C(=O)c1cn(C)c2ccc(-c3ccn4nc(NC(=O)CN(C)C)nc4c3)cc12 [Compound 174] | > 9.00
44 | C[C@H](NC(=O)c1cn(C)c2ccc(-c3ccn4nc(NC(=O)CN5CCN(C)CC5)nc4c3)cc12)c1ccc(F)cc1 [Compound 51] | > 9.00
45 | Cn1cc(C(=O)N[C@H](c2ccc(F)cc2)C(F)F)c2cc(-c3ccn4nc(NC(=O)CN5CCCCC5)nc4c3)ccc21 [Compound 163] | > 9.00
46 | C[C@H](NC(=O)c1cn(C)c2ccc(-c3ccn4nc(NC(=O)CN5CC(F)(F)C5)nc4c3)cc12)c1ccc(Cl)cc1 [Compound 80] | > 9.00
47 | C[C@H](NC(=O)c1cn(C)c2ccc(-c3ccn4nc(NC(=O)CN5CCOC[C@@H]5C)nc4c3)cc12)c1ccc(F)cc1 [Compound 60] | > 9.00
